# Molecular target: T1, TMV CP (TMV coat protein) (Tobacco mosaic virus (vulgare), UniProt P69687)
# T1 construct: NT-647 dye labelled for MST
# Experiment: microscale thermophoresis (Monolith NT.[…], NT-647-labelled protein)
# Type: binding
# T1 sequence (P69687 2-159 limits assumed): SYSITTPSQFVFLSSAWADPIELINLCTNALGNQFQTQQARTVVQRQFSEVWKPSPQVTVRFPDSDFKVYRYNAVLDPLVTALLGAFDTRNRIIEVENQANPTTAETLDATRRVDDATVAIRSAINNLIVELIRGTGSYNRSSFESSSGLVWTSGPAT
smiles,measurement,value
O=c1c2ccccc2ncn1CO/N=C(\C=C\c1ccccn1)/C=C/c1ccccc1OCc1ccc(Cl)cc1Cl [8k],Kd,970 ± 690 nM

# Source: paper PMC6661780, “Design, synthesis, antiviral bioactivities and interaction mechanisms of penta-1,4-diene-3-one oxime ether derivatives containing a quinazolin-4(3H)-one scaffold” (BMC Chemistry, 2019)
